In publication PMC1764434 (PLoS Clinical Trials, 2007):
Several values for one entry are separate records, joined by “and”; a condition that tells them apart may be missing. Equal values may be shown once. Entries after “also recorded” stand apart in the source; their conditions may differ. Read-outs that look alike come from different tables or passages of the source.

How the values were obtained:
[1] = Urinary excretion and renal clearance (24-hour urine collections, days 1-3); conditions: for second (di-dealkylated) metabolite/parent ratio in urine: AQ-73/AQ-13 and BDCQ/CQ; for detection of di-dealkylated metabolite in urine: urine collections days 1-3 after dosing
[2] = Blood pharmacokinetics after oral dosing (fluorescence HPLC, noncompartmental WinNonlin model); type: in vivo, human; conditions: for detection of di-dealkylated metabolite in the blood: after oral AQ-13 or CQ; for Cmax / Vd/F / MRT / Tmax / half-life / AUC: human
Protocol: Study drugs were administered in the GCRC on an empty stomach between 8 and 9 AM the morning after admission (after fasting for ≥ 10 h).

healthy volunteers [3] = experiment: Clinical adverse events (weekly diaries, blinded relatedness assessment), Phase I RCT; type: in vivo, human
Protocol: Adverse events (AEs) were recorded in weekly diaries provided to each volunteer. The relatedness of these AEs to the study drugs was assessed by two physicians (FM, CH) based on temporal association and biological plausibility using five categories: definitely not, unlikely, possibly, probably, and definitely related. The AEs reported in this manuscript include all AEs assessed as possibly, probably, or definitely related.
Quantitative data are presented as the mean ± standard deviation or as median and range, as appropriate. […] Due to a lack of normality, the nonparametric Mann-Whitney U test was used to compare independent samples; the Wilcoxon or Friedman test (whichever was appropriate) was used to compare repeated measures of the QTc interval. All statistical tests were two-sided with an α (significance level) of 0.05. Analyses were performed using the SPSS 11.0 statistical software (SPSS, Chicago, Illinois, United States). All analyses were based on allocation by intent-to-treat.

QT interval = experiment: Effects on the QT interval (ECG and Holter recordings, Bazett correction); conditions: for QTc interval, Baseline: before dosing
Protocol: The effects of the study drugs on the QT interval were assessed by comparing QT intervals before dosing with QT intervals 4 h after dosing, and at the 2 wk follow-up. […] QT intervals were measured manually and electronically (Rozinn Electronics, Glendale, New York, United States). […] Correction of the QT interval for heart rate (i.e., QTc) was performed using Bazett's formula [27].

healthy volunteers [4] = experiment: Post-dose clinical and laboratory follow-up (hematology, chemistry, organ toxicity); type: in vivo, human
[5] = 1,500 mg CQ (n = 15) / 1,750 mg AQ-13 (n = 14)
[6] = 100, 300 mg doses, n = 16 per drug
[7] = 600/700 mg, AQ-13 n = 25, CQ n = 24
[8] = all doses combined, 63 volunteers per drug
[9] = days 1-3, 1,750 mg AQ-13 / 1,500 mg CQ
[10] = 1,750 mg AQ-13, 1,500 mg CQ, mean ± SD
[11] = 600/700 mg AQ-13, 600 mg CQ, mean ± SD

SMILES: NCCCNc1ccnc2cc(Cl)ccc12 [AQ-73]
- second (di-dealkylated) metabolite/parent ratio in urine ([1]; days 1-3): 5.2%
- detection of di-dealkylated metabolite in urine [1]: identified in urine collections
- detection of di-dealkylated metabolite in the blood [2]: not detected in the blood

SMILES: CC(CCCN)Nc1ccnc2cc(Cl)ccc12 (centres unmarked) [BDCQ]
- second (di-dealkylated) metabolite/parent ratio in urine ([1]; days 1-3): 2.6%
- detection of di-dealkylated metabolite in urine [1]: identified in urine collections
- detection of di-dealkylated metabolite in the blood [2]: not detected in the blood

SMILES: CCN(CC)CCCC(C)Nc1ccnc2cc(Cl)ccc12 (centres unmarked) [CQ, chloroquine]
- related adverse events: None (healthy volunteers [3]; 10 mg dose, n = 8 per drug): 0
- Abdominal pain, number (%) (healthy volunteers [3]; [5]): 0
- Blurred vision, number (%) (healthy volunteers [3]; [5]): 2 (13%)
- Diarrhea, number (%) (healthy volunteers [3]; [5]): 4 (27%)
- Difficulty focusing/visual floating objects, number (%) (healthy volunteers [3]; [5]): 3 (20%)
- Lightheadedness/Dizziness, number (%) (healthy volunteers [3]; [5]): 4 (27%)
- Loss of appetite, number (%) (healthy volunteers [3]; [5]): 2 (13%)
- Nausea, number (%) (healthy volunteers [3]; [5]): 5 (33%)
- Vomiting, number (%) (healthy volunteers [3]; [5]): 2 (13%)
- Weakness/fatigue, number (%) (healthy volunteers [3]; [5]): 0
- Headache, number (%) (healthy volunteers [3]; 1,500 mg CQ (n = 15) / 1,750 mg AQ-13 (n = 14) over 3 d): 4 (27%)
- Headache, volunteers with related AE, number (%) (healthy volunteers [3]; [6]): 1 (6%)
- Lightheadedness/Dizziness, number (%) (healthy volunteers [3]; [6]): 1 (6%)
- Nausea, number (%) (healthy volunteers [3]; [6]): 0
- Abdominal pain, number (%) (healthy volunteers [3]; [7]): 0
- Diarrhea, number (%) (healthy volunteers [3]; [7]): 2 (8%)
- Ear symptoms, number (%) (healthy volunteers [3]; [7]): 2 (8%)
- Headache, number (%) (healthy volunteers [3]; [7]): 5 (21%)
- Lightheadedness/Dizziness, number (%) (healthy volunteers [3]; [7]): 3 (13%)
- Loss of appetite, number (%) (healthy volunteers [3]; [7]): 3 (13%)
- Nausea, number (%) (healthy volunteers [3]; [7]): 1 (4%)
- Vomiting, number (%) (healthy volunteers [3]; [7]): 0
- drug-related GI symptoms, number of reports (healthy volunteers [3]; all doses combined): 20 reports
- drug-related lightheadedness/dizziness, volunteers/total (healthy volunteers [3]; [8]): 8/63
- volunteers reporting one or more GI symptoms/total (healthy volunteers [3]; [8]): 13/63
- amount of unchanged drug recovered from 24 hour urine collections [1, 9]: 829 µmol
- unchanged drug recovered from 24 hour urine collections, % of total oral dose [1, 9]: 18.0%
- CL renal ([1]; human, in vivo, po, 1500 mg): 100 mL/min
- QTc interval of individual volunteers who developed QTc greater than 450 ms (QT interval; 600 mg CQ, two females): 467 ms and 457 ms
- mean QTc prolongation after the first dose (day 1) (QT interval; 1,500 mg CQ (first 600 mg dose) / 1,750 mg AQ-13 (first 700 mg dose)): 16 ms
- additional QTc increase after the second dose (day 2) (QT interval; 1,500 mg CQ / 1,750 mg AQ-13): 12 ms
- QTc interval of individual volunteers who developed QTc > 450 ms (QT interval; 1,500 mg CQ, 4 h after dosing on day 2, two females): 453 ms
- QTc interval, Baseline (QT interval; 1,750 mg AQ-13 (n = 13), 1,500 mg CQ (n = 14), mean ± SD): 396 ± 21 ms
- QTc interval, 2 wk follow-up (QT interval; [10]): 412 ± 13 ms
- QTc interval, 4–5 h post-dose (day 1) (QT interval; [10]): 412 ± 22 ms
- QTc interval, 4–5 h post-dose (day 2) (QT interval; [10]): 424 ± 19 ms and 424 ± 18 ms
- QTc interval, 4–5 h post-dose (day 3) (QT interval; [10]): 417 ± 21 ms
- mean QTc prolongation, females (QT interval; 1,750 mg AQ-13 / 1,500 mg CQ): 28 ms
- mean QTc prolongation, males (QT interval; 1,750 mg AQ-13 / 1,500 mg CQ): 31 ms
- mean increase in the QTc interval from baseline (QT interval; 1,750 mg AQ-13 / 1,500 mg CQ, 4 h after the second dose on day 2): 28 ms
- QTc interval, Baseline (QT interval; 600/700 mg AQ-13 (n = 25), 600 mg CQ (n = 24), mean ± SD): 406 ± 19 ms
- QTc interval, 2 wk follow-up (QT interval; [11]): 403 ± 15 ms
- QTc interval, 4–5 h post-dose (day 1) (QT interval; [11]): 421 ± 20 ms
- maximal prolongation of the QTc interval from baseline at the individual level (QT interval; 600/700 mg dose): 54 ms
- maximal prolongation of the QTc interval from baseline at the individual level (QT interval; 1,500/1,750 mg dose): 63 ms
- mean increase in the QTc interval from baseline, females (QT interval; 4 h after 600 mg CQ or 600/700 mg AQ-13): 22 ms
- mean QTc interval change from baseline, males (QT interval; 4 h after 600 mg CQ or 600/700 mg AQ-13, not significant): 7 ms
- mean increase in the QTc interval from baseline (QT interval; 4 h after 600 mg CQ or 600 or 700 mg AQ-13): 15 ms and 16 ms
- arrhythmias or other cardiac AEs (QT interval; all doses): no arrhythmias or other cardiac AEs; also recorded: no cardiac AEs
- blood level one hour after dosing as % of Cmax ([2]; 600 mg oral dose): 72%
- Cl/F ([2]; 1,500 mg oral over 3 d, median (range)): 9.5 L/h
- median oral clearance (range of medians across dose levels) ([2]; 600 and 1,500/1,750 mg doses): 9.5 to 11.3 L/h
- Cmax ([2]; in vivo, 1500 mg, 1,500 mg oral over 3 d (600+600+300 mg), whole blood, median (range), read-out: Cmax): 3400 nM
- Vd/F ([2]; in vivo, 1500 mg, 1,500 mg oral over 3 d, median (range)): 3720 L
- MRT ([2]; in vivo, 1500 mg, 1,500 mg oral over 3 d, median (range), read-out: MRT (converted)): 16 days
- Tmax ([2]; in vivo, 1500 mg, 1,500 mg oral over 3 d, median (range), read-out: Tmax): 26.3 h
- half-life ([2]; in vivo, 1500 mg, 1,500 mg oral over 3 d, median (range), read-out: t½ (converted)): 13.2 days
- AUC ([2]; in vivo, po, 600 mg, single oral 600 mg dose, whole blood, median (range), read-out: AUCw1 (partial AUC for week 1)): 90 µM·h
- AUC ([2]; in vivo, po, 600 mg, single oral 600 mg dose, whole blood, median (range), read-out: AUCτ (total area under the curve)): 241 µM·h
- AUC ([2]; in vivo, po, 1500 mg, 1,500 mg oral over 3 d, median (range), read-out: AUCw1): 312 µM·h
- AUC ([2]; in vivo, po, 1500 mg, 1,500 mg oral over 3 d, median (range), read-out: AUCτ): 636 µM·h
- Tmax ([2]; in vivo, 1,750 mg AQ-13 / 1,500 mg CQ, 27–28 h after the first dose, read-out: time of peak blood concentration after the second dose): 3 to 4 h
- half-life ([2]; in vivo, 600 and 1,500 mg oral doses, read-out: estimate of the terminal elimination t1/2 (across doses)): 14 to 24 days
- Cmax ([2]; in vivo, single oral 600 mg dose (CQ base equivalent), whole blood, median (range), read-out: Cmax): 1800 nM
- Vd/F ([2]; in vivo, single oral 600 mg dose, median (range)): 8670 L
- MRT ([2]; in vivo, single oral 600 mg dose, whole blood, median (range), read-out: MRT (converted)): 24.7 days
- Tmax ([2]; in vivo, single oral 600 mg dose, whole blood, median (range), read-out: Tmax): 3 h
- half-life ([2]; in vivo, single oral 600 mg dose, whole blood, median (range), read-out: t½ (terminal elimination half-life) (converted)): 23.3 days
- linearity of pharmacokinetics ([2]; oral doses in healthy volunteers): linear pharmacokinetics
- Cl/F (apparent oral clearance) ([2]; single oral 600 mg dose, median (range)): 11.3 (5.7–20.3) l/h
- hematologic or chemical toxicities on repeat laboratory testing (healthy volunteers [4]; 4 d after drug administration): no hematologic or chemical toxicities
- organ toxicity (healthy volunteers [4]; any dose tested, inpatient exams, 2 and 4 wk follow-up): No hematologic, hepatic, renal, or other organ toxicity was observed; also recorded: no clinical evidence for end-organ toxicity

SMILES: CCNCCCC(C)Nc1ccnc2cc(Cl)ccc12 (centres unmarked) [MDCQ, mono-desethylchloroquine]
- mono-dealkylated metabolite/parent ratio in urine ([1]; days 1-3, AQ-72/AQ-13 and MDCQ/CQ): 22.7%
- time after dosing at which metabolite/parent ratio reached 1.0 ([2]; 600 mg CQ, MDCQ/CQ ratio): 2–3 wk
- metabolite/parent ratio in blood at the Cmax of the parent drug ([2]; 600 mg dose, AQ-72/AQ-13 (mean) or MDCQ/CQ): 0.26
- time to appearance of metabolite in the blood ([2]; after oral 600 or 700 mg AQ-13 or 600 mg CQ): ≤ 1 h
- AUC ([2]; whole blood, oral, 1500 mg, after 1,500 mg CQ over 3 d, median (range), read-out: AUCτ of metabolite): 330 µM·h
- MRT ([2]; whole blood, oral, 1500 mg, after 1,500 mg CQ over 3 d, median (range), read-out: MRT of metabolite (converted)): 29 days
- half-life ([2]; whole blood, oral, 1500 mg, after 1,500 mg CQ over 3 d, median (range), read-out: t1/2 of metabolite (converted)): 21.8 days
- AUC ([2]; whole blood, po, 600 mg, after 600 mg oral dose of parent drug (CQ or AQ-13), whole blood, median (range), read-out: AUCτ of metabolite): 205 µM·h
- MRT ([2]; whole blood, after 600 mg oral dose of parent drug, median (range), read-out: MRT of metabolite (converted)): 44.8 days
- half-life ([2]; whole blood, after 600 mg oral dose of parent drug, median (range), read-out: t1/2 of metabolite (converted)): 31.2 days
- Cmax ([2]; whole blood, after 600 mg oral dose of parent drug, median, read-out: Cmax of metabolite): 540 nM
